Molecules are shown by their SMILES. Counter-ions that a name gives are not always drawn.

The target of the first series is T1, dipeptidyl peptidase IV (Rattus norvegicus, UniProt P14740).
T1 construct: from tissue; host or cells: SD rat blood plasma
T1 sequence (P14740 37-767 limits assumed): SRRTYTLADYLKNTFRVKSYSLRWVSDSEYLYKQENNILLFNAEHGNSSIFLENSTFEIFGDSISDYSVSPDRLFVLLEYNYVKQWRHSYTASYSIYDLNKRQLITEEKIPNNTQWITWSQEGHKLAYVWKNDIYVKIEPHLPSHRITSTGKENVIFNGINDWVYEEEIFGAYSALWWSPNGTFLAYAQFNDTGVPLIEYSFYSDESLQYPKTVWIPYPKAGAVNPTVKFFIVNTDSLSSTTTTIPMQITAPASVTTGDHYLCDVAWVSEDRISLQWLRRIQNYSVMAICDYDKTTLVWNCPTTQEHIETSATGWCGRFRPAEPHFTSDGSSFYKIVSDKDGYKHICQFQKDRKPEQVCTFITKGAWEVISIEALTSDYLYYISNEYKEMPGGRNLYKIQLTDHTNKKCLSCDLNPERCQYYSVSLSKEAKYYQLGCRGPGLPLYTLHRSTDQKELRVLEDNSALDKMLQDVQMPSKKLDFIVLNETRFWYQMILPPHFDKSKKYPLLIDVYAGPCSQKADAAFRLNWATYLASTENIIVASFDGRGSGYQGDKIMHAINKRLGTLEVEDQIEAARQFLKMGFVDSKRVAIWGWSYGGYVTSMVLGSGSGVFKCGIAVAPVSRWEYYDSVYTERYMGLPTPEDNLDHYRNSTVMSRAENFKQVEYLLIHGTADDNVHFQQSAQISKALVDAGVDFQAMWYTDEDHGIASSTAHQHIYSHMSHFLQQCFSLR
Put plainly: Determination of dipeptidyl peptidase IV inhibitory activity in rat plasma. The class given is biochemical, SD rat.
Conditions: not given
How it is done: Determination of Dipeptidyl Peptidase IV Inhibitory Activity in Rat Plasma
An N,N-dimethylformamide solution (1 μL) containing the test compound was added to a mixture of water (69 μL), 1 M Tris-hydrochloride buffer (10 μL, pH 7.5) and 1 mM aqueous Gly-Pro-p-NA solution (100 μL) to prepare a mixed solution. […] At the same time, an increase (ΔODc) in absorbance of the reaction mixture without the test compound, and an increase (ΔODb) in absorbance of the reaction mixture without the test compound and the enzyme were determined and percent inhibition of dipeptidyl peptidase IV enzyme activity was calculated from the following formula: {1-[(ΔODs−ΔODb)/(ΔODc−ΔODb)]}×100
Consider `Cc1ccc(-c2c(CN)c(CC(C)C)nc(C)c2C(=O)OCc2ccc(C(=O)O)cc2)cc1` [Example 170, 4-[({[5-(aminomethyl)-6-isobutyl-2-methyl-4-(4-methylphenyl)pyridin-3-yl]carbonyl}oxy)methyl]benzoic acid dihydrochloride], for which the midpoint of inhibition, the IC50, lay at 100 nM.

The same series, now with this note: Experimental Example 1; SD rat plasma, Gly-Pro-p-NA substrate, 30° C., 1 hr, absorbance 405 nm; read-out: IC50 value (dipeptidyl peptidase IV inhibitory activity).
In the case of `COC(=O)c1c(C)nc(CC(C)C)c(CN)c1-c1ccc(C)cc1` [Example 1, methyl 5-(aminomethyl)-6-isobutyl-2-methyl-4-(4-methylphenyl)nicotinate], the IC50 (commonly the concentration needed to halve the response being measured) came out at 520 nM.

The series is the same for the next values; noted with them: Experimental Example 2; same manner as Experimental Example 1; SD rat plasma, Gly-Pro-p-NA substrate, 30° C.; read-out: IC50 value (dipeptidyl peptidase IV inhibitory activity).
As to `Cc1ccc(-c2c(CN)c(CC(C)C)nc(C(C)C)c2C(=O)O)cc1` [Example 26, 5-(aminomethyl)-6-isobutyl-2-isopropyl-4-(4-methylphenyl)nicotinic acid dihydrochloride], the IC50 came out at 5.1 nM.

For the compound `Cc1ccc(-c2c(CSc3ccccc3C(N)=O)c(C)nc(CC(C)C)c2CN)cc1` [Example 210, 2-({[5-(aminomethyl)-6-isobutyl-2-methyl-4-(4-methylphenyl)pyridin-3-yl]methyl}thio)benzamide dihydrochloride], the IC50 was 12 nM. On to `Cc1ccc(-c2c(CN)c(CC(C)C)nc(C)c2NC(=O)c2ccc(F)cc2)cc1` [Example 267, N-[5-(aminomethyl)-6-isobutyl-2-methyl-4-(4-methylphenyl)pyridin-3-yl]-4-fluorobenzamide dihydrochloride], for which the IC50 turned out to be 7.4 nM. The same measure, in the same setting: the result for `COC(=O)c1cn(C)nc1OCc1c(C)nc(CC(C)C)c(CN)c1-c1ccc(C)cc1` [Example 305, methyl 3-{[5-(aminomethyl)-6-isobutyl-2-methyl-4-(4-methylphenyl)pyridin-3-yl]methoxy}-1-methyl-1H-pyrazole-4-carboxylate dihydrochloride] reads 3.5 nM; that for `Cc1ccc(-c2c(CC(=O)N3CCOCC3)c(C)nc(CC(C)C)c2CN)cc1` [Example 312, {[2-isobutyl-6-methyl-4-(4-methylphenyl)-5-(2-morpholin-4-yl-2-oxoethyl)pyridin-3-yl]methyl}amine dihydrochloride], 20 nM; that for `Cc1ccc(-c2c(CN)c(CC(C)C)nc(C)c2NC(=O)c2cnoc2)cc1` [Example 350, N-[5-(aminomethyl)-6-isobutyl-2-methyl-4-(4-methylphenyl)pyridin-3-yl]isoxazole-4-carboxamide dihydrochloride], 15 nM. Turning to `CCOC(=O)C1CCN(C(=O)Cc2c(C)nc(CC(C)C)c(CN)c2-c2ccc(C)cc2)CC1` [Example 421, ethyl 1-{[5-(aminomethyl)-6-isobutyl-2-methyl-4-(4-methylphenyl)pyridin-3-yl]acetyl}piperidine-4-carboxylate dihydrochloride], the concentration for half-maximal inhibition (IC50) came out at 16 nM. Consider `Cc1ccc(-c2c(CC(=O)N3CCC(C(=O)O)CC3)c(C)nc(CC(C)C)c2CN)cc1` [Example 422, 1-{[5-(aminomethyl)-6-isobutyl-2-methyl-4-(4-methylphenyl)pyridin-3-yl]acetyl}piperidine-4-carboxylic acid dihydrochloride], for which the IC50 is 7.3 nM.

Test system in another series: not given
Assay: not given
Conditions: not given
Turning to `COC(=O)c1c(C)nc(CC(C)C)c(CN)c1-c1ccc(C)cc1` [Example 1, methyl 5-(aminomethyl)-6-isobutyl-2-methyl-4-(4-methylphenyl)nicotinate], the melting point – broadly, the temperature of the solid-liquid transition – lay within 56 to 57 °C. Compound `Cc1nc(CC(C)C)c(CN)c(-c2ccc(Cl)cc2)c1C(=O)OC(C)(C)C` [Example 23, tert-butyl 5-(aminomethyl)-4-(4-chlorophenyl)-6-isobutyl-2-methylnicotinate] displayed a melting point of 81 to 83 °C.

Source of the values: patent publication US20070037807A1, “Pyridine compounds as inhibitors of dipeptidyl peptidase IV” (priority 2003, published 2007).
